Measurements as given in paper PMC5754923 (Journal of medicinal chemistry, 2017).
pEC50, pIC50, pKd: −log10 of the molar value. “Also recorded” adds a separate entry of the source. Where two headings read alike, the source gives them in different places. Each block holds one compound with its values, some of them ahead of it.

Columns and labels:
[1] = molecular target: T1, full intracellular domain of BTN3A1 (Homo sapiens, UniProt O00481); settings: known Kd, ref not given; cited from earlier work
K562 cells [2] = settings: statement of the discussion, not tested here; ref not given; cited from earlier work
Vγ9Vδ2 T cells [3] = settings: expansion from peripheral blood; ref [10]; cited from earlier work
Vγ9Vδ2 T cells [4] = assay: Expansion of Vγ9Vδ2 T cells from peripheral blood; type: cell-based, human; settings: for Stimulation of Vγ9Vδ2 T cell proliferation: 0.1 µM, CD3+/γδ TCR+ population; for Fold difference from salt: prodrug versus unprotected salt
T cells = assay: Toxicity towards the T cells in the expansion assay; type: cell-based, human
[5] = molecular target: T1, full intracellular domain of BTN3A1; assay: Isothermal titration calorimetry; type: binding; settings: for Binding to BTN3A1: purified BTN3A1, direct titration
K562 cells [6] = assay: K562 proliferation; type: cell-based, human
[7] = HPLC and HPLC-MS analysis in aqueous acetonitrile; type: physicochemical
K562 cells [8] = assay: Vγ9Vδ2 T cell mediated lysis of K562 cells; settings: for Fold difference from salt, lysis: 2 hour treatment/4 hour co-culture
[9] = presence of 10-fold higher compound 8
[10] = presence of 100-fold molar excess of compound 8

T1 sequence (O00481 272-513 limits assumed): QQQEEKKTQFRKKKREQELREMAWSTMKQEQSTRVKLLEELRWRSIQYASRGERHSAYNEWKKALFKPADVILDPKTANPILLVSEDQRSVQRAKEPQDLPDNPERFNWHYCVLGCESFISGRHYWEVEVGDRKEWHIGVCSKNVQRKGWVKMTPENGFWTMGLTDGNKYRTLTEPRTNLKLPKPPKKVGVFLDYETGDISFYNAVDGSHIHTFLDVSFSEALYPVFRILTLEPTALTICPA

SMILES: C/C(=C\CP(=O)(O)OP(=O)(O)O)CO [C-HMBPP, (E)-4-hydroxy-3-methyl-but-2-enyl phosphonophosphate]
pKd [1]: 5.72

SMILES: C/C(=C\CCP(=O)(OCOC(=O)C(C)(C)C)OCOC(=O)C(C)(C)C)CO [Compound 2]
Direct toxicity (K562 cells [2]): not directly toxic

SMILES: C/C(=C\CCP(=O)(O)O)CO [Compound 3]
pEC50 (Vγ9Vδ2 T cells [3]): 5.40

pEC50 (Vγ9Vδ2 T cells [4]; Homo sapiens, T-cell): 7.39 | Binding to BTN3A1 [5]: did not bind | Stability in aqueous acetonitrile [7]: some minor isomerization
SMILES: C/C(=C\CCP(=O)(CP(=O)(OCOC(=O)C(C)(C)C)OCOC(=O)C(C)(C)C)OCOC(=O)C(C)(C)C)CO (centres unmarked) [Compound 4, (E)-(((((5-Hydroxy-4-methylpent-3-en-1-yl)((pivaloyloxy)methoxy)phosphoryl)methyl)phosphoryl)bis(oxy))bis(methylene) bis(2,2-dimethylpropanoate)]
Stimulation of Vγ9Vδ2 T cell proliferation (Vγ9Vδ2 T cells [4]): strongly stimulated proliferation | Fold difference from salt (Vγ9Vδ2 T cells [4]; EC50 ratio): 630 x | Fold difference from salt (Vγ9Vδ2 T cells [4]; EC50 ratio, listed as POM3-CC-HMBPP (4)): 630x (versus 10) | Concentrations with toxicity towards the T cells (T cells; Figure 2B): ≥ 10 µM | Fold difference from HMBPP, direct K562 toxicity (K562 cells [6]; 72 hour treatment): >29x | Fold difference from salt, direct K562 toxicity (K562 cells [6]; 72 hour treatment): >29x | Fold difference in cellular activity between compound 4 and 11 (K562 cells [8]): 26 fold | Fold difference from salt, lysis (K562 cells [8]): 150 x | Fold difference from salt, lysis (K562 cells [8]; listed as POM3-CC-HMBPP (4)): 146x

SMILES: CC(C)=CCCP(=O)([O-])CP(=O)([O-])[O-].[Na+].[Na+].[Na+] [Compound 8, Sodium (((4-methylpent-3-en-1-yl)oxidophosphoryl)methyl)phosphonate]
pEC50 (Vγ9Vδ2 T cells [4]; Homo sapiens, T-cell): < 4.00 | pIC50 (T cells; Homo sapiens, T-cell): < 4.00 | Competition with HMBPP binding ([5]; 10x and 100x compound 8): capable of disrupting HMBPP binding in a dose-dependent manner | Binding to BTN3A1 [5]: too low to be measured directly; also recorded: intermediate affinity | pEC50 (K562 cells [8]; Homo sapiens, K562, 2 h, read-out: EC50, lysis of K562 cells by T cells): < 4.00

SMILES: COP(=O)(CC/C=C(\C)CO)CP(=O)(OC)OC (centres unmarked) [Compound 9, Dimethyl (E)-(((5-hydroxy-4-methylpent-3-en-1-yl)(methoxy)phosphoryl)methyl)phosphonate]
Agonist / biological activity (Vγ9Vδ2 T cells [4]): nor is biologically active | pEC50 (Vγ9Vδ2 T cells [4]; PBMC exposed 72 hours, grown 11 days, flow cytometry): < 4.00 | pIC50 (T cells; toxicity in T cell expansion assay): < 4.00 | Binding to BTN3A1 [5]: neither binds to the protein | pIC50 (K562 cells [6]; read-out: IC50, direct K562 toxicity, 72 hour treatment): < 4.00

SMILES: C/C(=C\CCP(=O)([O-])CP(=O)([O-])[O-])CO.[Na+].[Na+].[Na+] [Compound 10, Sodium (E)-(((5-hydroxy-4-methylpent-3-en-1-yl)oxidophosphoryl)methyl)phosphonate]
pEC50 (Vγ9Vδ2 T cells [4]; Homo sapiens, T-cell): 4.59 | pIC50 (T cells; Homo sapiens, T-cell): < 4.00 | Binding to BTN3A1 [5]: intermediate affinity

pEC50 (Vγ9Vδ2 T cells [4]; Homo sapiens, T-cell): < 4.00
SMILES: CC(C)=CCCP(=O)(CP(=O)(OCOC(=O)C(C)(C)C)OCOC(=O)C(C)(C)C)OCOC(=O)C(C)(C)C (centres unmarked) [Compound 11, (((((4-Methylpent-3-en-1-yl)((pivaloyloxy)methoxy)phosphoryl)methyl)phosphoryl)bis(oxy))bis(methylene) bis(2,2-dimethylpropanoate)]
Agonist / biological activity (Vγ9Vδ2 T cells [4]): No measurable agonist activity | Fold difference from HMBPP (Vγ9Vδ2 T cells [4]; EC50 ratio): <0.0000051x | pIC50 (T cells; Homo sapiens, T-cell): < 4.00 | Fold difference from HMBPP, direct K562 toxicity (K562 cells [6]; 72 hour treatment): >10x | Fold difference from salt, direct K562 toxicity (K562 cells [6]; 72 hour treatment): >10x | Fold difference from salt, lysis (K562 cells [8]): >14x

TΔS of HMBPP binding ([5]; absence of compound 8): -4.54 kcal/mol | ΔH of HMBPP binding ([5]; absence of compound 8): -12.4 kcal/mol | TΔS of HMBPP binding [5, 9]: -1.1 kcal/mol | ΔH of HMBPP binding [5, 9]: -9.32 kcal/mol | TΔS of HMBPP binding [5, 10]: +28 kJ/mol | ΔH of HMBPP binding [5, 10]: -1.65 kcal/mol
SMILES: C/C(=C\COP(=O)(O)OP(=O)(O)O)CO [HMBPP, (E)-4-hydroxy-3-methyl-but-2-enyl diphosphate, reference compound]
Stimulation of Vγ9Vδ2 T cell proliferation (Vγ9Vδ2 T cells [4]): strongly stimulated proliferation | Direct toxicity (K562 cells [6]): not directly toxic | Hill slope, K562 lysis (K562 cells [8]; four parameter non-linear regression): 0.69

SMILES: C=C(C)CCOP(=O)(O)OP(=O)(O)O [IPP, isopentenyl diphosphate]
Direct toxicity (K562 cells [2]): not directly toxic

SMILES: O=P(O)(O)C(O)(Cc1cccnc1)P(=O)(O)O [risedronate]
Direct toxicity (K562 cells [2]): do exhibit direct toxicity

SMILES: O=P(O)(O)C(O)(Cn1ccnc1)P(=O)(O)O [zoledronate]
Direct toxicity (K562 cells [2]): do exhibit direct toxicity
